Assay results: patent publication US11851411B2, “Herbicidal compounds” (SYNGENTA CROP PROTECTION AG, priority 2018, dated 2023)

Columns and labels:
Format in all cases: in vivo
[1] = system: Echinochloa crus-galli (ECHCG); test: Glasshouse herbicide test, post-emergence; settings: POST Application; 500 g/h; evaluated after 13 days
Experimental: (§1) Seeds of a variety of test species are shown in standard soil in pots (Lolium perenne (LOLPE), Amaranthus retoflexus (AMARE), Abutilon theophrasti (ABUTH), Setaria faberi (SETFA), Echinochloa crus-galli (ECHCG), Ipomoea hederacea (IPOHE)). After cultivation for one day (pre-emergence) or after 8 days cultivation (post-emergence) under controlled conditions in a glasshouse (at 24/16° C., day/night; 14 hours light; 65% humidity), the plants are sprayed with an aqueous spray solution derived from the formulation of the technical active ingredient in acetone/water (50:50) solution containing 0.5% Tween 20 (polyoxyethelyene sorbitan monolaurate, CAS RN 9005-64-5). Compounds are applied at 500 g/h. The test plants are then grown in a glasshouse under controlled conditions in a glasshouse (at 24/16° C., day/night; 14 hours light; 65% humidity) and watered twice daily. After 13 days for pre and post-emergence, the test is evaluated for the percentage damage caused to the plant. The biological activities are shown in the following table on a five point scale (5=80-100%; 4=60-79%; 3=40-59%; 2=20-39%; 1=0-19%).

[2] = system: Setaria faberi (SETFA); test: Glasshouse herbicide test, post-emergence; settings: POST Application; 500 g/h; evaluated after 13 days
Experimental: as §1

[3] = system: Abutilon theophrasti (ABUTH); test: Glasshouse herbicide test, post-emergence; settings: POST Application; 500 g/h; evaluated after 13 days
Experimental: as §1

[4] = system: Ipomoea hederacea (IPOHE); test: Glasshouse herbicide test, post-emergence; settings: POST Application; 500 g/h; evaluated after 13 days
Experimental: as §1

[5] = system: Amaranthus retoflexus (AMARE); test: Glasshouse herbicide test, post-emergence; settings: POST Application; 500 g/h; evaluated after 13 days
Experimental: as §1

[6] = system: Echinochloa crus-galli (ECHCG); test: Glasshouse herbicide test, pre-emergence; settings: PRE Application; 500 g/h; evaluated after 13 days
Experimental: as §1

[7] = system: Setaria faberi (SETFA); test: Glasshouse herbicide test, pre-emergence; settings: PRE Application; 500 g/h; evaluated after 13 days
Experimental: as §1

[8] = system: Abutilon theophrasti (ABUTH); test: Glasshouse herbicide test, pre-emergence; settings: PRE Application; 500 g/h; evaluated after 13 days
Experimental: as §1

[9] = system: Ipomoea hederacea (IPOHE); test: Glasshouse herbicide test, pre-emergence; settings: PRE Application; 500 g/h; evaluated after 13 days
Experimental: as §1

[10] = system: Amaranthus retoflexus (AMARE); test: Glasshouse herbicide test, pre-emergence; settings: PRE Application; 500 g/h; evaluated after 13 days
Experimental: as §1

[11] = system: Setaria faberi (SETFA); test: Comparative experiment, post-emergence phytotoxicity; settings: POST Application; Rate 125 g/ha
Experimental: (§2) A comparative experiment is conducted to show the advantage provided by the compounds of the present invention. Thus the biological performance of representative compounds 1.001, 1.043, 2.002 & 2.024 of the present invention are compared with Compound C1, which is an aniline compound of the type referred to in WO2012/028579. Results are given as (%) phytotoxicity observed.

[12] = system: Amaranthus retroflexus (AMARE); test: as above; settings: POST Application; Rate 125 g/ha
Experimental: as §2

SMILES	percentage damage caused to the plant, five point scale, ECHCG [1]	percentage damage caused to the plant, five point scale, SETFA [2]	percentage damage caused to the plant, five point scale, ABUTH [3]	percentage damage caused to the plant, five point scale, IPOHE [4]	percentage damage caused to the plant, five point scale, AMARE [5]	percentage damage caused to the plant, five point scale, ECHCG [6]	percentage damage caused to the plant, five point scale, SETFA [7]	percentage damage caused to the plant, five point scale, ABUTH [8]	percentage damage caused to the plant, five point scale, IPOHE [9]	percentage damage caused to the plant, five point scale, AMARE [10]	(%) phytotoxicity observed, SETFA [11]	(%) phytotoxicity observed, AMARE [12]
CON(C(C)=O)c1c(C(F)(F)F)ccc(C(=O)Nc2nnnn2C)c1Cl [Compound 1.001, 3-[acetyl(methoxy)amino]-2-chloro-N-(1-methyltetrazol-5-yl)-4-(trifluoromethyl)benzamide]	5 (5=80-100%)	5 (5=80-100%)	5 (5=80-100%)	5 (5=80-100%)	5 (5=80-100%)	5 (5=80-100%)	5 (5=80-100%)	5 (5=80-100%)	5 (5=80-100%)	5 (5=80-100%)	90%	90%
CON(C)c1c(S(C)(=O)=O)ccc(C(=O)Nc2nnnn2C)c1Cl [Compound 1.043, 2-chloro-3-[methoxy(methyl)amino]-4-methylsulfonyl-N-(1-methyltetrazol-5-yl)benzamide]	5 (5=80-100%)	5 (5=80-100%)	5 (5=80-100%)	5 (5=80-100%)	5 (5=80-100%)	5 (5=80-100%)	5 (5=80-100%)	5 (5=80-100%)	5 (5=80-100%)	5 (5=80-100%)	90%	100%
CON(C(C)=O)c1c(C(F)(F)F)ccc(C(=O)Nc2nnc(C)o2)c1C [Compound 2.002]	5 (5=80-100%)	5 (5=80-100%)	5 (5=80-100%)	5 (5=80-100%)	5 (5=80-100%)	5 (5=80-100%)	5 (5=80-100%)	5 (5=80-100%)	5 (5=80-100%)	5 (5=80-100%)	90%	50%
CCCON(C)c1c(S(C)(=O)=O)ccc(C(=O)Nc2nnc(C)o2)c1Cl [Compound 2.024]	5 (5=80-100%)	5 (5=80-100%)	5 (5=80-100%)	5 (5=80-100%)	5 (5=80-100%)	5 (5=80-100%)	5 (5=80-100%)	5 (5=80-100%)	5 (5=80-100%)	5 (5=80-100%)	80%	80%
Cn1nnnc1NC(=O)c1ccc(C(F)(F)F)c(N)c1Cl [Compound C1, reference compound]											20%	10%
